Source: US9820957B2, “Methods of treating autoimmunity” (IM Therapeutics, Inc., priority 2016, dated 2017)

Legend:
[1] = cited from earlier work; for decarboxylation to α-methyl-dopamine in patients: Sjoerdsma et al. 1963, urine of treated patients
DQ8-restricted T cell = experiment: Pharmacodynamics in DQ8 transgenic mice: ex vivo splenocytes stimulating a DQ8-restricted T cell to deamidated gliadin peptide; details: 4 mg by oral gavage daily for 5 days
Excerpt: Ex vivo splenocytes were used to stimulate a DQ8-restricted T cell to a deamidated gliadin peptide.

[2] = system: HLA-DQ8 antigen presenting cells with insulin responsive CD4 T cell receptor (TCR) transductant; experiment: Inhibition of DQ8 antigen presentation in vitro, insulin responsive TCR transductant, IL-2 ELISA; format: cell-based; details: for inhibition of insulin responsive TCR transductant (secreted IL-2): 4 hours with peptide and compound, then overnight with transductant; for IC50 compared between the enantiomers: insulin responsive TCR transductant
Procedure: (§1) Inhibition of DQ8 antigen presentation by the D- and L-enantiomers of α-methyldopa was tested and compared in vitro. HLA-DQ8 antigen presenting cells were cultured with a fixed concentration of peptide and a concentration of D- or L-α-methyldopa for 4 hours. TCR transductants were then added to each culture condition and cultured overnight. Secreted IL-2 from the TCR transductant was measured by ELISA for each condition.
(§2) In these figures, 0 represents the TCR transductant response to peptide without the addition of α-methyldopa. No antigen IL-2 responses (negative control) were very low at <2 pg/ml. Results are presented as mean+/− SEM.

[3] = system: HLA-DQ8 antigen presenting cells with gliadin-responsive CD4 T cell receptor (TCR) transductant; experiment: Inhibition of DQ8 antigen presentation in vitro, gliadin-responsive TCR transductant, IL-2 ELISA; format: cell-based; details: for inhibition of gliadin-responsive TCR transductant (secreted IL-2): 4 hours with peptide and compound, then overnight with transductant; for IC50 compared between the enantiomers: gliadin-responsive TCR transductant
Procedure: as §1, §2

[4] = Oral pharmacokinetics in HLA-DQ8 transgenic mice, plasma by HPLC-MS; format: in vivo; details: oral gavage, 4 mg
Procedure: Separate cohorts of HLA-DQ8 transgenic mice (n=2) were gavaged with a specific dose of L- and D-α-methyldopa, followed by the collection of plasma 90 minutes later. […] Similarly, separate cohorts of mice (n=3) were gavaged with a specific enantiomer (D or L enantiomer) and dose (4 mg by gavage) of α-methyldopa followed by the collection of plasma at baseline, 1, 2, 4, 6, and 18 hours later. […] In these PK studies the Lower Limit of Quantification (LLOQ) was <2.5 ng/ml. Results are presented as mean+/− SEM.

| SMILES | absorption in humans compared with the other isomer ([1]; Au et al. 1972) | decarboxylation to α-methyl-dopamine in patients [1] | pharmacologic activity ([1]; prior art view, Du et al., Gillespie et al. 1962) | inhibition of the DQ8-restricted T cell response to deamidated gliadin peptide (DQ8-restricted T cell) | response to positive control stimulus (anti-CD3) (DQ8-restricted T cell) | inhibition of insulin responsive TCR transductant (secreted IL-2) [2] | IC50 compared between the enantiomers [2] | inhibition of gliadin-responsive TCR transductant (secreted IL-2) [3] | IC50 compared between the enantiomers [3] | time to maximum plasma concentration (Tmax) compared with the other enantiomer [4] |
| --- | --- | --- | --- | --- | --- | --- | --- | --- | --- | --- |
| C[C@@](N)(Cc1ccc(O)c(O)c1)C(=O)O [D-α-methyldopa, D-α-Methyl-3,4-dihydroxyphenylalanine] | much less readily absorbed | did not decarboxylate | no pharmacologic activity | inhibition of the T cell response is observed | not different between the groups | blocked in a dose-dependent manner | statistically similar IC50 values | blocked in a dose-dependent manner | statistically similar IC50 values | – |
| C[C@](N)(Cc1ccc(O)c(O)c1)C(=O)O [L-α-methyldopa, L-α-Methyl-3,4-dihydroxyphenylalanine, reference compound] | – | α-methyl-dopamine did appear in the urine | – | only for the D enantiomer | not different between the groups | blocked in a dose-dependent manner | statistically similar IC50 values | blocked in a dose-dependent manner | statistically similar IC50 values | slightly slower |
